Laboratory results reported in patent EP3069725A1, “GLORIOSA SUPERBA L. EXTRACTS, COMPOSITIONS AND USE THEREOF” (priority 2015, dated 2016).

Columns and labels:
cancer cells [1] = conditions: literature; cited from earlier work
cancer cells [2] = conditions: literature comparison with colchicine; cited from earlier work
PANC02 cells = experiment: In vivo efficacy study, subcutaneous PANC02 tumour model; set-up: species or system C57BL/6 mice; conditions: 60 mg/kg BW gemcitabine IP, 3 times/week
Method: Cultures of PANC02 cells were harvested using a 0.05% trypsin solution, washed twice in sterile PBS and resuspended in sterile PBS at a concentration of 30 x 10^6 cells per mL. The viable cells were counted by using the Muse® Cell Analyzer. The mice (n = 56) were inoculated with 100 µL of the cell suspension in the right hind limb. Each mouse was randomly assigned to one of 8 groups (n = 6-8 mice per group) receiving a different treatment (Table 2). Tumour growth of the subcutaneous model was evaluated with calliper measurements from the moment the tumours became palpable and this three times a week before treatment and daily during treatment. The tumour volume was calculated by means of formula V = 0.5 x ab^2, with a and b being the long and short axes of the tumour, respectively. Table 2 - Group treatment assignment
Treatment was administered during 10 days, starting 19 days after tumour inoculation when tumours had reached a volume of approximately 300-400 mm^3. The first day of treatment was assigned "day 1". […] For both extracts the total amount of colchicine and its derivatives (calculated as colchicine) was the same, but the amount of colchicine itself in the extracts was different. […] To evaluate the effect of the treatment, tumour volume was measured daily during treatment and the mice were sacrificed on day 11.
Results were expressed as mean values of parameters ± standard error (SE). […]

SMILES: COc1c(O[C@@H]2O[C@H](CO)[C@@H](O)[C@H](O)[C@H]2O)cc2c(c1OC)-c1ccc(OC)c(=O)cc1[C@@H](NC(C)=O)CC2 [Colchicoside]
- activity in vitro (cancer cells [1]): not active

SMILES: COc1cc2c(c(OC)c1O)-c1ccc(OC)c(=O)cc1[C@@H](NC(C)=O)CC2 [2-O-demethylcolchicine]
- in vivo potency (cancer cells [2]): 13.8 µmol/kg

SMILES: Nc1ccn([C@@H]2O[C@H](CO)[C@@H](O)C2(F)F)c(=O)n1 [Gemcitabine, gemcitabine]
- % TGI (7 days) (PANC02 cells; day 7): 90%
- % TGI (10 days) (PANC02 cells; day 10): 99%

SMILES: COc1cc2c(c(OC)c1OC)-c1ccc(OC)c(=O)cc1[C@@H](NC(C)=O)CC2 [COL, colchicine]
- in vivo potency (cancer cells [2]): 0.4 µmol/kg
